Results from article PMC12281142, “A potent phenylalkylamine disrupts mycobacterial membrane bioenergetics and augments bactericidal activity of bedaquiline” (iScience, 2025).
In brackets after ≈: the same amount, converted by molar mass.

What follows are molecules tested on M. bovis BCG (assay: microbe, parasite or virus in culture). Conditions: not given.
Type: cell-based, Mycobacterium bovis BCG
With `COc1ccc(CCN(C)CCCC(C#N)(c2ccc(OC)c(OC)c2)C2CCCCCCC2)cc1OC` (stereo not shown) [PhA4] the MIC50 was 23 µM (≈ 12 µg/mL), the MIC90 was 44 µM (≈ 23 µg/mL) and the “MIC90 (Table S1)” value was 44 µM (≈ 23 µg/mL).
With `COc1ccc(C(C#N)(CCCN2CCN(c3ccccc3OC)CC2)C(C)C)cc1OC` (stereo not shown) [PhA20] the “MIC90 (Table S1)” value was 163 µM (≈ 73.6 µg/mL).
In the case of `COc1ccc(CCN(C)CCCC(C#N)(Cc2ccc(Br)cc2)c2ccc(OC)c(OC)c2)cc1OC` (stereo not shown) [PhA5], the MIC50 is reported as 17 µM (≈ 9.89 µg/mL), the MIC90 is reported as 43 µM (≈ 25 µg/mL) and the “MIC90 (Table S1)” value is reported as 43 µM (≈ 25 µg/mL).
With `COc1ccc(CCN(C)CCCC(C#N)(c2ccc(Cl)c(Cl)c2)C(C)C)cc1OC` (stereo not shown) [PhA7] the MIC50 was 27 µM (≈ 12.5 µg/mL), the MIC90 was 47 µM (≈ 21.8 µg/mL) and the “MIC90 (Table S1)” value was 47 µM (≈ 21.8 µg/mL).
For `COc1ccc(C(C#N)(CC=C(C)CCC=C(C)C)CCCN2CCN(C(c3ccccc3)c3ccccc3)CC2)cc1OC` (stereo not shown) [PhA16], the MIC50 was 29 µM (≈ 17.6 µg/mL), the MIC90 was 46 µM (≈ 27.9 µg/mL) and the “MIC90 (Table S1)” value was 46 µM (≈ 27.9 µg/mL).
`COc1ccc(CCN(C)CCCC(C#N)(CC2CCCCC2)c2ccc(Cl)cc2)cc1OC` (stereo not shown) [PhA15] was tested, and the MIC50 was 21 µM (≈ 10.1 µg/mL), the MIC90 was 37 µM (≈ 17.9 µg/mL) and the “MIC90 (Table S1)” value was 37 µM (≈ 17.9 µg/mL).
In the case of “carbonyl cyanide m-chlorophenyl hydrazine [CCCP, reference compound]”, the MIC90 is reported as 50 µM and the “MIC90 BCG” value is reported as 10 µg/mL.
With `COc1ccc(CCN(C)CCCC(C#N)(Cc2cccc(Cl)c2)c2ccc(OC)c(OC)c2)cc1OC` (stereo not shown) [PhA6] the MIC50 was 17 µM (≈ 9.13 µg/mL), the MIC90 was 45 µM (≈ 24.2 µg/mL) and the “MIC90 (Table S1)” value was 45 µM (≈ 24.2 µg/mL).
In the case of `COc1ccc(C(C#N)(CCCN2CCN(c3ccccc3Cl)CC2)C(C)C)cc1OC` (stereo not shown) [PhA19], the “MIC90 (Table S1)” value is reported as 73 µM (≈ 33.3 µg/mL).
In the case of `COc1ccc(C(C#N)(CCCN2CCN(c3cccc(O)c3)CC2)C(C)C)cc1OC` (stereo not shown) [PhA21], the “MIC90 (Table S1)” value is reported as > 250 µM.
For `COc1ccc(CCN(C)CCCC(C#N)(c2ccc(Cl)cc2)C2CCCCC2)cc1OC` (stereo not shown) [PhA14], the MIC50 was 19 µM (≈ 8.91 µg/mL), the MIC90 was 35 µM (≈ 16.4 µg/mL) and the “MIC90 (Table S1)” value was 35 µM (≈ 16.4 µg/mL).
Molecule `CC(C)C(C#N)(CCCN(C)CCc1ccc(Cl)c(Cl)c1)c1ccc(Cl)c(Cl)c1` (stereo not shown) [PhA66] has an MIC50 of 56 µM (≈ 26.4 µg/mL).
With `COc1ccc(C(C#N)(CCCN(C)CCc2ccc(Cl)c(Cl)c2)C(C)C)cc1OC` (stereo not shown) [PhA8] the MIC50 was 26 µM (≈ 12 µg/mL), the MIC90 was 45 µM (≈ 20.9 µg/mL) and the “MIC90 (Table S1)” value was 45 µM (≈ 20.9 µg/mL).
In the case of `COc1ccc(C(C#N)(CCCn2c(N)nc3ccccc32)C(C)C)cc1OC` (stereo not shown) [PhA18], the “MIC90 (Table S1)” value is reported as 155 µM (≈ 60.8 µg/mL).
In the case of `COc1ccc(CCN(C)CCCCCCCCCCCCC(C#N)(c2ccc(OC)c(OC)c2)C(C)C)cc1OC` (stereo not shown) [PhA10], the MIC50 is reported as 18 µM (≈ 10.5 µg/mL), the MIC90 is reported as 32 µM (≈ 18.6 µg/mL) and the “MIC90 (Table S1)” value is reported as 32 µM (≈ 18.6 µg/mL).
For `COc1ccc(C(C#N)(CCCn2c(C)nc3ccccc32)C(C)C)cc1OC` (stereo not shown) [PhA17], the “MIC90 (Table S1)” value was > 250 µM.

Same assay, conditions: M. bovis BCG, broth dilution
In the case of `COc1ccc(CCN(C)CCCC(C#N)(c2cc(OC)c(OC)c(OC)c2)C(C)C)cc1OC` (stereo not shown) [PhA52, gallopamil, reference compound], the “MIC90 (Table S1)” value is reported as > 250 µM.

Same assay, conditions: Mycobacterium tuberculosis variant bovis BCG, BCG, read-out: MIC90 (Table S1), M. bovis BCG, broth dilution
`COc1cccc(CCN(C)CCCC(C#N)(c2ccc(OC)c(OC)c2)C(C)C)c1` (stereo not shown) [PhA57, devapamil, reference compound] gave an MIC90 of 180 µM (≈ 76.4 µg/mL).
